The IC50 is the concentration at which inhibition is half-maximal. The low end stands for inhibition by little substance, the high end for a need for much substance.

Each structure is given as a SMILES string.

Drawing on ChEMBL document CHEMBL1158744, “Leptolide, a new furanocembranolide diterpene from Leptogorgia alba” (J Nat Prod, 2005), this text covers IC50 for five molecules.

In this assay the test system is Plasmodium falciparum. Description: Antiplasmodial activity against Plasmodium falciparum W2 after 48 hrs in PicoGreen microfluorimetry. To be noted: W2, 48 h. The assay is classed as functional, organism-based.
`C=C(C)[C@H]1CC2=C(C(=O)OC)C=C(O2)[C@H]2O[C@]2(C)C[C@@H]2OC(=O)[C@]3(O[C@@H]23)[C@H](OC(C)=O)C1` [LOPHOLIDE] came in with a half-inhibitory concentration (IC50) of 105 µM.
With `C=C(C)[C@H]1CC2=C(C(=O)OC)C=C(O2)[C@H]2O[C@]2(C)C[C@H]2C=C(C(=O)O2)[C@H](OC(C)=O)C1` the figure was 109 µM; with `C=C(C)[C@@H]1CCC2=C[C@@H](OC2=O)[C@@H](C(=C)C)C2=CC(C(=O)OC)=C(C1)O2` [DEOXYPSEUDOPTEROLIDE], 50 µM.
The same measure for `C=C(C)[C@@H]1CC2=C(C=O)C=C(O2)[C@@H]2O[C@@]2(C)C[C@H]2OC(=O)[C@@]3(O[C@H]23)[C@@H](OC(C)=O)C1` [LOPHOTOXIN]: 74 µM; for `C=C(C)[C@H]1CCC2=C[C@@H](C[C@]3(C)O[C@H]3C3=CC(C=O)=C(C1)O3)OC2=O` [PUKALIDE ALDEHYDE]: 134 µM.
